Data from patent publication US7214519B2, “Screening method for identifying heme independent modulators of soluble guanylyl cyclase (sGC) activity using αβCys105 mutant sGC” (Board of Regents of the University of Texas System, priority 2003, dated 2007).
Changes are numbered by the printed parent chain.

How the values were obtained:
αβ^Cys105 mutant sGC = molecular target: T1, αβ^Cys105 mutant sGC (Homo sapiens, UniProt Q02108+Q02153, H105C); assay: Assay of sGC activity ([32P]cGMP formation from GTP), purified αβ^Cys105 mutant enzyme; type: biochemical
T1 construct: made in house; host or cells: Sf9 cells (baculovirus)
T1 sequence (Q02153 1-619 H105C): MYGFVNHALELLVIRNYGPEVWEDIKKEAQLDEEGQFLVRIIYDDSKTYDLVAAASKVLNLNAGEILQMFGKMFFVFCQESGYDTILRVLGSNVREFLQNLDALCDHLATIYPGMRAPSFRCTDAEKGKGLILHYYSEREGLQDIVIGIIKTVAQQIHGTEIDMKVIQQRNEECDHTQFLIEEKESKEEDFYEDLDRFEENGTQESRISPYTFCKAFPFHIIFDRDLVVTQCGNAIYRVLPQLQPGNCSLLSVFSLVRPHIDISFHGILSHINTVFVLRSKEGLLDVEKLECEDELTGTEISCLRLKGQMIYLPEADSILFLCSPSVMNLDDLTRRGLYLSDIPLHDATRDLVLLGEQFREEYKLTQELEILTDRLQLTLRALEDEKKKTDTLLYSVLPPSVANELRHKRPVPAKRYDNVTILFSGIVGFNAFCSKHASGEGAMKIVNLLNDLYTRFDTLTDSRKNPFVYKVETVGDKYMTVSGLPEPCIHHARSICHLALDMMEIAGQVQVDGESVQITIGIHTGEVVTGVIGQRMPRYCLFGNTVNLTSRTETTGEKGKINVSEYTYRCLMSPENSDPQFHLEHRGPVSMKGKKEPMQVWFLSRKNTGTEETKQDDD
T1 sequence (Q02108 1-690): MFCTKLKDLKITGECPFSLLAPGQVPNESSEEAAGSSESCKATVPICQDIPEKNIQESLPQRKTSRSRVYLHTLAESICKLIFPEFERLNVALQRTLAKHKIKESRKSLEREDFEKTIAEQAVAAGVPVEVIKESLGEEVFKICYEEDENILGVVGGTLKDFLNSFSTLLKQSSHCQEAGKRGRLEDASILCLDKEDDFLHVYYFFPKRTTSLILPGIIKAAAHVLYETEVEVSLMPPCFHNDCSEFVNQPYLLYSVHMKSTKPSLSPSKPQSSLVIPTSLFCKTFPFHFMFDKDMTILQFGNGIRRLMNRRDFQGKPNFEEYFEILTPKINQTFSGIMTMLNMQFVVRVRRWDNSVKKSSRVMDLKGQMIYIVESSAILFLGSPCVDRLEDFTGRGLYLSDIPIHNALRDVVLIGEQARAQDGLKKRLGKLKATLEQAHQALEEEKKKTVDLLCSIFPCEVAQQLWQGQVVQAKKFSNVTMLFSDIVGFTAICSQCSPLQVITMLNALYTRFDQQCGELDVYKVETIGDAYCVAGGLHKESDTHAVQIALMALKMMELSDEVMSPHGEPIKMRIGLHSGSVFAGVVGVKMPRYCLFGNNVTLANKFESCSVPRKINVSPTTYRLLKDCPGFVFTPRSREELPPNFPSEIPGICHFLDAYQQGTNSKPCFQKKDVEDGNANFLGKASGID
Procedure: (§1) sGC Expression and Purification. […] Purification of sGC was performed as described earlier (26), the disclosure of which is hereby incorporated herein by reference, with the following modifications. Cells were harvested 72 h post infection, resuspended in loading buffer (25 mM triethanolamine, pH 7.5. 10 glycerol, 4 mM MgCl2 and 1 mM phenylmethylsulfonyl fluoride, and 5 μg/ml each of pepstatin A, leupeptin, aprotinin, and chymostatin,) and lysed by sonication. The lysate was subjected to 100,000×g centrifugation for 1 h. The high-speed supernate was loaded on a 60 ml DEAE-Sepharose (Amersham Pharmacia Biotech) column and washed with 60 ml of loading buffer without protease inhibitors. The proteins were eluted with loading buffer containing 250 mM NaCl and the eluate was directly loaded on a 30 ml His-Bind resin (Novagen) column. The column was washed with 60 ml of loading buffer followed by 60 ml of loading buffer with 45 mM imidazole. The enzyme was eluted with 175 mM imidazole and 2 ml fractions were collected. […] The enzyme at this stage was approximately 90–95% pure. To remove imidazole, sGC-containing fractions were diluted 3 fold with 25 mM triethanolamine pH 7.5, loaded on a 2 ml Hi-Trap DEAE-Sepharose column (Amersham Pharmacia Biotech), washed with 10 ml of loading buffer and eluted with 25 mM triethanolamine pH 7.5, 250 mM NaCl, 10 glycerol, 4 mM MgCl2, 0.5 mM EDTA, 0.5 mM EGTA. The enzyme obtained at this stage (95% or greater purity) was used for experiments.
(§2) Assay of sGC Activity. Enzyme activity was assayed by formation of [^32P] cGMP from α[^32P]GTP at 37° C. in a final volume of 100 μl. Incubation medium contained 50 mM triethanolamine-HCl buffer (pH 7.4), 1 mM 3-isobutyl-1-methylxanthine (IBMX), 1 mg/ml BSA. 1 mM cGMP, 3 mM MgCl2, 0.05 mg/ml creatine phosphokinase, 5 mM creatine phosphate, 0.1 mM EGTA. 200 μM GTP (about 10.000 cpm/pmol). The reaction was started by addition of the substrate (GTP) with or without activators. 1 mM DTT, GSH or cysteine were added to the incubation medium before the addition of GTP. Thiol concentration varied in some experiments as indicated. Samples containing 0.2 μg sGC were incubated for 10 or 15 min and the reaction was stopped by addition of 500 μl 150 mM zinc acetate and 500 μl 180 mM sodium carbonate. The pellet of zinc carbonate containing most of the unreacted GTP was removed by centrifugation and the supernatant fractions were loaded onto columns filled with 1 g of neutral alumina. Columns were then eluted with 10 ml 0.1 M Tris-HCl buffer (pH 7.5) and Cherenkov radiation in flow through plus eluate was counted in a LKB liquid scintillation spectrometer. Samples incubated in the absence of sGC were used as a negative control. The concentration of dimethylsulfoxide (DMSO) used as a vehicle for YC-1 was not higher than 0.1 and had no effect on sGC activity as determined previously.

wild type sGC = molecular target: T2, wild type sGC (Homo sapiens, UniProt Q02108+Q02153); assay: Assay of sGC activity ([32P]cGMP formation from GTP), purified wild type enzyme; type: biochemical
T2 construct: made in house; host or cells: Sf9 cells (baculovirus)
T2 sequence (Q02153 1-619): T1 sequence (Q02153 1-619 H105C) with C105H
T2 sequence (Q02108 1-690): T1 sequence (Q02108 1-690)
Procedure: as §1, §2

[1] = 2 μM BAY-41-2272, data not shown

## Nc1nc(-c2nn(Cc3ccccc3F)c3ncccc23)ncc1C1CC1 [BAY-41-2272, 5-cyclopropyl-2-[1-(2-fluoro-benzyl)-1H-pyrazolo[3,4-b]pyridin-3-yl]-pyrimidin-4-ylamine, reference compound]
αβ^Cys105 mutant sGC; [1]
  effect compared with 100 μM YC-1: Identical effects
Wild type sGC; [1]
  effect compared with 100 μM YC-1: Identical effects

## O[C@@H](CS)[C@@H](O)CS [DTT, reference compound]
αβ^Cys105 mutant sGC; concentration-response, FIG. 1B
  concentration at which inhibitory effect is prominent: higher than 1 mM
αβ^Cys105 mutant sGC; millimolar concentrations of DTT
  fold decrease in enzymatic activity: 5–7 fold
Wild type sGC; 1 mM DTT vs no thiols
  change of activity without DTT: did not change significantly

## N[C@@H](CCC(=O)N[C@@H](CS)C(=O)NCC(=O)O)C(=O)O [GSH, glutathione, reference compound]
αβ^Cys105 mutant sGC; GSH as reducing agent, no DTT
  specific activity in the presence of GSH: up to 2 μmol/min/mg
αβ^Cys105 mutant sGC; GSH concentration above 1 mM
  effect of GSH on activity: slight stimulatory effect

## C=CC1=C(C)c2cc3[nH]c(cc4nc(cc5[nH]c(cc1n2)c(C)c5CCC(=O)O)C(CCC(=O)O)=C4C)c(C)c3C=C [PPIX, protoporphyrin IX, reference compound]
αβ^Cys105 mutant sGC; 1 μM PPIX, absence of DTT
  stimulation of basal activity by PPIX: 80

## OCc1ccc(-c2nn(Cc3ccccc3)c3ccccc23)o1 [YC-1, 3-(5′-Hydroxymethyl-2′furyl)-1-benzyl-indazole, reference compound]
αβ^Cys105 mutant sGC; 100 μM YC-1, DTT-free conditions
  increase of activity with YC-1 activation: 30
αβ^Cys105 mutant sGC; 100 μM YC-1, DTT-treated heme-reconstituted enzyme
  extent of activation by YC-1 after heme reconstitution: did not change the extent of activation
αβ^Cys105 mutant sGC; 100 μM YC-1, in the presence of DTT
  fold activation by YC-1: up to 3 fold
Wild type sGC; 100 μM YC-1
  fold stimulation by YC-1: 11 fold
  specific activity with YC-1: 0.15 µmol/min/mg

## CCCCC/C=C\C/C=C\C/C=C\C/C=C\CCCC(=O)O [arachidonic acid, reference compound]
αβ^Cys105 mutant sGC; 1 mM arachidonic acid, in the presence of DTT
  activity with arachidonic acid: 0.5 µmol/min/mg
αβ^Cys105 mutant sGC; 1 mM, in the presence of DTT
  fold stimulation by arachidonic acid: 3.5 fold
αβ^Cys105 mutant sGC; absence of DTT
  stimulation by arachidonic acid: only modestly stimulated
Wild type sGC; not affected by DTT, data not shown
  maximum fold activation by arachidonic acid: 3 fold

## NCCSSCCN [cystamine, reference compound]
αβ^Cys105 mutant sGC; 1 mM cystamine, 1 mM DTT
  sensitivity to cystamine in the presence of DTT: less sensitive
Wild type sGC; 1 mM cystamine, 1 mM DTT
  effect of cystamine on activity in the presence of DTT: reversed
Wild type sGC; 1 mM cystamine, no DTT
  effect of cystamine on activity: inhibited
